Earlier results in PMC3983201, “6-Methoxyflavanones as Bitter Taste Receptor Blockers for hTAS2R39” (PLoS ONE, 2014).
Read-outs that look alike come from different tables or passages of the source.

Columns and labels:
hTAS2R31 = test system: hTAS2R31; design: method as in PMID 22059530; details: cited from earlier work
bitter taste = test system: bitter taste; design: method as in PMID 16028996; details: in-vivo sensory masking, unknown mechanism; cited from earlier work
hTAS2R39 = biological target: T1, hTAS2R39 (Homo sapiens, UniProt P59534); design: method as in PMID 24117141; details: cited from earlier work
T1 construct: first 45 amino acids of rat somatostatin receptor type 3 (sst3 membrane-targeting tag) (N); expressed in transfected cells; host or cells: HEK293 T-Rex Flp-In cells stably expressing Gα16-gust44; receptor in pcDNA5/FRT, induced with doxycycline
T1 sequence (P59534 1-338): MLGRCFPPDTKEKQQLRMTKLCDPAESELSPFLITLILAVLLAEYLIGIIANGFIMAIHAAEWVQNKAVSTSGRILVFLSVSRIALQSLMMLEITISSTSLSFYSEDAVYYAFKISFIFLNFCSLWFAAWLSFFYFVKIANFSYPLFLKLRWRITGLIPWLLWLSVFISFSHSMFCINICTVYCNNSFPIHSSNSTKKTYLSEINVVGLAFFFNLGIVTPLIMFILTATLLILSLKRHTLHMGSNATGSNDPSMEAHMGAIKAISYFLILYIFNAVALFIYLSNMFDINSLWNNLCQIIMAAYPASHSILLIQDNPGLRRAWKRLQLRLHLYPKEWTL

| SMILES | antagonism of hTAS2R31 (hTAS2R31) | reduction of the bitter taste of different chemical classes of bitter molecules (bitter taste) | activation of hTAS2R39 in a previous study (hTAS2R39) | antagonism of hTAS2R31 (hTAS2R31; listed as sakuranetin) |
| --- | --- | --- | --- | --- |
| COc1cc2c(c(O)c1OC)C(=O)C[C@@H](c1ccc(O)cc1)O2 [6-methoxysakuranetin, reference compound] | antagonists for hTAS2R31 |  |  |  |
| COc1cc([C@@H]2CC(=O)c3c(O)cc(O)cc3O2)ccc1O [Compound 7, Homoeriodictyol] |  | up to 40% | a activated hTAS2R39 in a previous study [16], but was selected for testing as antagonist due to ability to reduce bitter taste perception in sensory tests [9]. |  |
| COc1cc(O)c2c(c1)O[C@H](c1ccc(O)cc1)CC2=O [Compound 14, Sakuranetin] | c reported as antagonist of hTAS2R31 [10]. |  |  | antagonists for hTAS2R31 |
